Publication PMC10700347, “Semisynthesis of 5-O-ester derivatives of renieramycin T and their cytotoxicity against non-small-cell lung cancer cell lines” (Scientific Reports, 2023)
Like-named read-outs stand apart in the source and are kept apart here.

Legend:
Assay type in all cases: cell-based
[1] = test system: H292 non-small-cell lung cancer cell line; experiment: cells; settings: for IC50: H292, MTT, 72 h, read-out: IC50 ± S.D. H292
Description: (§1) The in vitro cytotoxicity of all the semisynthesized esters and their precursors against H292 and H460 human NSCLC cell lines was analyzed based on the mitochondrial dehydrogenase activity via the MTT assay[43] (Table 1). The compounds were tested at doses of 1–250 nM. Cisplatin and doxorubicin, which are the standard chemotherapeutic drugs for the treatment of NSCLC, were used as positive controls. […] However, the extended use of 1 is limited by the concerns for unwanted necrosis, which is an unprogrammed form of cell death caused by the presence of two quinone moieties. […] The IC50 values of the 5-O-ester derivatives 3a, 3b, 3d, 3h, 3i, and 3k were in the same range as the mother compound 1.
(§2) The in vitro cytotoxicity of compounds 3a–3o, 4a, and 4b was determined against the H292 and H460 NSCLC cell lines by the MTT colorimetric assay. Each compound was dissolved in DMSO to prepare a 10 mM stock solution. Both the H292 and H460 cells were cultured in RPMI 1640 medium supplemented with 2 mM L-glutamine, 10% FBS, and 100 units/mL of penicillin–streptomycin at 37 °C under 5% CO2. The NSCLC cells were trypsinized and seeded with a density of 5 × 10^3 cells/well in a 96-well plate, followed by overnight incubation. Serial dilutions of the test compounds ranging from 1 to 250 nM were prepared in the presence of DMSO (< 0.2% v/v). […] After incubation, formazan crystals were solubilized by adding 100 µL of DMSO, and their absorbance was measured at 570 nm by a spectrophotometric microtiter plate reader (PerkinElmer Victor 3 1420 Multilabel Plate Counter). Cell viability was calculated as the percentage of nontreated control cells. The mean IC50 values were obtained from three independent experiments. Each experiment was conducted in triplicate with at least five concentrations of the tested compounds. The GraphPad Prism software (version 5) was used to calculate the average IC50 and standard deviation (S.D.) values for each experiment. Cisplatin and doxorubicin were used as the positive controls, while 0.2% DMSO served as the negative control.

[2] = test system: H460 non-small-cell lung cancer cell line; experiment: cells; settings: for IC50: H460, MTT, 72 h, read-out: IC50 ± S.D. H460
Description: as §1, §2

[3] = test system: human keratinocyte (HaCaT) cell line; experiment: MTT cell viability on normal cell line HaCaT; settings: 24 h, read-out: IC50 ± S.D. HaCaT
Description: (§3) DP and BEAS-2B were seeded into 96-well plates at densities of 1 × 10^4 cells per well, while HaCaT cells were seeded at densities of 5 × 10^3 cells per well. The cells were allowed to adhere for 24 h. Subsequently, the cells were treated with various concentrations of compounds 3a–3o, 4a, and 4b at 72 h for DP cells and at 24 h for HaCaT and BEAS-2B cells. After the treatment period, cells were incubated with 0.5 mg/ml of MTT for 2 h. The resulting MTT product was measured at 570 nm using a spectrophotometric microplate reader. Cell viability was calculated by comparing the optical density (OD) measurements to those of the untreated control, and the results were expressed as a percentage.

[4] = test system: dermal papilla (DP) cell line; experiment: MTT cell viability on normal cell line DP; settings: 72 h
Description: as §3

[5] = test system: non-tumorigenic bronchial epithelial (BEAS-2B) cell line; experiment: MTT cell viability on normal cell line BEAS-2B; settings: BEAS-2B normal cell line, 24 h, read-out: IC50 ± S.D. BEAS-2B
Description: as §3

Structure (SMILES) | IC50 [1] | IC50 [2] | IC50 [3] | IC50 [4] | IC50 [5] | IC50 ([1]; Homo sapiens, NCI-H292) | IC50 ([2]; Homo sapiens, NCI-H460) | IC50 ([3]; Homo sapiens) | IC50 ([5]; Homo sapiens) | Reduction in cytotoxicity against H292 [1] | Reduction in cytotoxicity against H460 [2]
N.N.[Cl][Pt][Cl] [Cisplatin, reference compound] | 4230 nM | 3860 nM | 14300 nM | 10800 nM | > 20000 nM |  |  |  |  |  | 
CC=C(C)C(=O)OCC1c2c(c(O)c(C)c3c2OCO3)CC2C3C4=C(CC(C(C#N)N12)N3C)C(=O)C(C)=C(OC)C4=O (stereo not drawn) [Compound 2, renieramycin T] |  |  |  | 51 ± 0.08 nM |  | 72.8 ± 2.88 nM | 84 ± 3.63 nM | 89.2 ± 4.29 nM | 163 ± 24.2 nM |  | 
CC=C(C)C(=O)OCC1c2c(c(OC(C)=O)c(C)c3c2OCO3)CC2C3C4=C(CC(C(C#N)N12)N3C)C(=O)C(C)=C(OC)C4=O (stereo not drawn) [Compound 3a, 5-O-acetyl renieramycin T] |  |  |  | 11.7 ± 0.59 nM |  | 43.4 ± 3 nM | 35.7 ± 2.11 nM | 9.49 ± 2.12 nM | > 250 nM |  | 
C/C=C(/C)C(=O)OC[C@H]1c2c(c(OC(=O)CNC(=O)OC(C)(C)C)c(C)c3c2OCO3)C[C@H]2[C@H]3C4=C(C[C@@H]([C@H](C#N)N12)N3C)C(=O)C(C)=C(OC)C4=O [Compound 3c] |  |  |  | 5.35 ± 0.27 nM |  | 39 ± 5.63 nM | 41.6 ± 4.15 nM | 23.1 ± 1.38 nM | > 250 nM |  | 
C/C=C(/C)C(=O)OC[C@H]1c2c(c(OC(=O)[C@H](C)NC(=O)OC(C)(C)C)c(C)c3c2OCO3)C[C@H]2[C@H]3C4=C(C[C@@H]([C@H](C#N)N12)N3C)C(=O)C(C)=C(OC)C4=O [Compound 3d, 5-O-(N-Boc-L-alanine)-renieramycin T] |  |  |  | 25.8 ± 1.05 nM |  | 39.5 ± 1.18 nM | 33 ± 1.55 nM | 58.5 ± 6.68 nM | 232 ± 26.1 nM |  | 
C/C=C(/C)C(=O)OC[C@H]1c2c(c(OC(=O)[C@@H](NC(=O)OC(C)(C)C)C(C)C)c(C)c3c2OCO3)C[C@H]2[C@H]3C4=C(C[C@@H]([C@H](C#N)N12)N3C)C(=O)C(C)=C(OC)C4=O [Compound 3e] |  |  |  | 50 ± 1.49 nM |  | 89.6 ± 5.03 nM | 76.1 ± 2.77 nM | 80.2 ± 4.1 nM | > 250 nM |  | 
C/C=C(/C)C(=O)OC[C@H]1c2c(c(OC(=O)[C@H](Cc3ccccc3)NC(=O)OC(C)(C)C)c(C)c3c2OCO3)C[C@H]2[C@H]3C4=C(C[C@@H]([C@H](C#N)N12)N3C)C(=O)C(C)=C(OC)C4=O [Compound 3f] |  |  |  | 39.8 ± 9.88 nM |  | 54.1 ± 4.78 nM | 50.7 ± 3.5 nM | 61.2 ± 3.43 nM | 181 ± 12.1 nM |  | 
C/C=C(/C)C(=O)OC[C@H]1c2c(c(OC(=O)c3ccccn3)c(C)c3c2OCO3)C[C@H]2[C@H]3C4=C(C[C@@H]([C@H](C#N)N12)N3C)C(=O)C(C)=C(OC)C4=O [Compound 3g] |  |  |  | 35.2 ± 4.13 nM |  | 51.5 ± 1.67 nM | 43.6 ± 1.36 nM | 74.3 ± 6.88 nM | > 250 nM |  | 
C/C=C(/C)C(=O)OC[C@H]1c2c(c(OC(=O)c3ccncc3)c(C)c3c2OCO3)C[C@H]2[C@H]3C4=C(C[C@@H]([C@H](C#N)N12)N3C)C(=O)C(C)=C(OC)C4=O [Compound 3h] |  |  |  | 4.83 ± 2.18 nM |  | 35.3 ± 1.09 nM | 35.6 ± 1.64 nM | 53.8 ± 7.07 nM | 223 ± 23.1 nM |  | 
C/C=C(/C)C(=O)OC[C@H]1c2c(c(OC(=O)c3ccc4ccccc4n3)c(C)c3c2OCO3)C[C@H]2[C@H]3C4=C(C[C@@H]([C@H](C#N)N12)N3C)C(=O)C(C)=C(OC)C4=O [Compound 3i, 5-O-(2-quinolinecarbonyl) ester] |  |  |  | 8.77 ± 1.94 nM |  | 36.5 ± 1.82 nM | 43.3 ± 4.29 nM | 28 ± 3.76 nM | 151 ± 19 nM |  | 
C/C=C(/C)C(=O)OC[C@H]1c2c(c(OC(=O)c3cnc4ccccc4c3)c(C)c3c2OCO3)C[C@H]2[C@H]3C4=C(C[C@@H]([C@H](C#N)N12)N3C)C(=O)C(C)=C(OC)C4=O [Compound 3j, 5-O-(3-quinolinecarbonyl) ester] |  |  |  | 37.6 ± 0.47 nM |  | 77.8 ± 5.79 nM | 86.1 ± 6.34 nM | 109 ± 7.38 nM | > 250 nM |  | 
C/C=C(/C)C(=O)OC[C@H]1c2c(c(OC(=O)/C=C/c3cccnc3)c(C)c3c2OCO3)C[C@H]2[C@H]3C4=C(C[C@@H]([C@H](C#N)N12)N3C)C(=O)C(C)=C(OC)C4=O [Compound 3k] |  |  |  | 8.36 ± 2.31 nM |  | 36.3 ± 2.06 nM | 38.8 ± 7.25 nM | 9.64 ± 0.93 nM | 114 ± 13.2 nM |  | 
C/C=C(/C)C(=O)OC[C@H]1c2c(c(OC(=O)c3c[nH]c4ccccc34)c(C)c3c2OCO3)C[C@H]2[C@H]3C4=C(C[C@@H]([C@H](C#N)N12)N3C)C(=O)C(C)=C(OC)C4=O [Compound 3l] |  |  |  | 72.1 ± 3.01 nM |  | 69.4 ± 1.61 nM | 57.9 ± 0.77 nM | 109 ± 6.99 nM | > 250 nM |  | 
C/C=C(/C)C(=O)OC[C@H]1c2c(c(OC(=O)c3ccco3)c(C)c3c2OCO3)C[C@H]2[C@H]3C4=C(C[C@@H]([C@H](C#N)N12)N3C)C(=O)C(C)=C(OC)C4=O [Compound 3m] |  |  |  | 25.29 ± 0.24 nM |  | 42.5 ± 3.84 nM | 42.9 ± 5.21 nM | 42.1 ± 3.13 nM | > 250 nM |  | 
C/C=C(/C)C(=O)OC[C@H]1c2c(c(OC(=O)c3cccs3)c(C)c3c2OCO3)C[C@H]2[C@H]3C4=C(C[C@@H]([C@H](C#N)N12)N3C)C(=O)C(C)=C(OC)C4=O [Compound 3n, 5-O-(2-thiophenecarbonyl) ester] |  |  |  | 68.6 ± 6.25 nM |  | 137 ± 6.3 nM | 123 ± 4.99 nM | 139 ± 6.16 nM | > 250 nM |  | 
C/C=C(/C)C(=O)OC[C@H]1c2c(c(OC(=O)c3ccc[nH]3)c(C)c3c2OCO3)C[C@H]2[C@H]3C4=C(C[C@@H]([C@H](C#N)N12)N3C)C(=O)C(C)=C(OC)C4=O [Compound 3o] |  |  |  | 50 ± 7.81 nM |  | 56.9 ± 2.66 nM | 58.3 ± 3.56 nM | 65.2 ± 1.52 nM | 220 ± 29.7 nM |  | 
C/C=C(/C)C(=O)OC[C@H]1C2=C(C[C@H]3[C@H]4C5=C(C[C@@H]([C@H](C#N)N13)N4C)C(=O)C(C)=C(OC)C5=O)C(=O)C(C)=C(OC(=O)CC)C2=O [Compound 4a, 7-O-(propanoyl) ester derivative of renieramycin S] |  |  |  | 77.4 ± 9.9 nM |  | 99.87 ± 0.91 nM | 164 ± 4.16 nM | 230 ± 22.7 nM | > 250 nM | 3 fold | fivefold
C/C=C(/C)C(=O)OC[C@H]1C2=C(C[C@H]3[C@H]4C5=C(C[C@@H]([C@H](C#N)N13)N4C)C(=O)C(C)=C(OC)C5=O)C(=O)C(C)=C(OC(=O)c1cccnc1)C2=O [Compound 4b, 7-O-(3-pyridinecarbonyl) ester derivative of renieramycin S] |  |  |  | 67.5 ± 5.46 nM |  | 100 ± 1.59 nM | 104 ± 2.2 nM | 192 ± 22.2 nM | > 250 nM | 3 fold | fivefold
COc1cccc2c1C(=O)c1c(O)c3c(c(O)c1C2=O)C[C@@](O)(C(=O)CO)C[C@@H]3O[C@H]1C[C@H](N)[C@H](O)[C@H](C)O1 [Doxorubicin, reference compound] |  |  |  | 58 ± 24.4 nM |  | 40.8 ± 6.89 nM | 43.9 ± 6.26 nM | 915 ± 50.2 nM | 663 nM |  | 
